{
  "source": "ChEMBL document CHEMBL1629543",
  "about": "“Recovery of humoral immunity is critical for successful antiviral therapy in disseminated mouse adenovirus type 1 infection” (Antimicrob Agents Chemother, 2008)",
  "key": {"[1]": {"system": "Murine adenovirus 1", "conditions": "Liver, 100 mg/kg", "description": "Antiviral activity against MAV-1 infected in immunocompromized BALB/c mouse assessed as decrease in viral DNA load in liver at 100 mg/kg, ip treated 8 days before infection measured after 28 days post infection by RT-PCR"}, "[2]": {"organism": "Mus musculus", "conditions": "BALB/c, 100 mg/kg", "description": "Immunosuppressive activity against MAV-1 infected BALB/c mouse assessed as inhibition of production of protective antibodies at 100 mg/kg, ip treated 8 days before infection for 3 weeks measured after 62 days postinfection"}, "[3]": {"organism": "Mus musculus", "conditions": "BALB/c, 100 mg/kg", "remark": "listed apart in the source", "description": "Immunosuppressive activity against MAV-1 infected BALB/c mouse assessed as inhibition of production of protective antibodies at 100 mg/kg, ip treated 8 days before infection for 2 weeks measured after 62 days postinfection"}, "[4]": {"organism": "Mus musculus", "conditions": "BALB/c, T-cell, 100 mg/kg", "description": "Immunosuppressive activity against MAV-1 infected BALB/c mouse assessed as T cells suppression at 100 mg/kg, ip treated 8 days before infection for 4 weeks measured 14 days post infection by flow cytometry"}},
  "note": "The source made the active and inactive calls. The calls are words filed in the database; no cut-off is given here.",
  "data": [
    {"smiles": "O=P1(N(CCCl)CCCl)NCCCO1", "note": "(centres undefined)", "values": [
      {"measurement": "inhibition", "setting": "[1]", "value": "Active"},
      {"measurement": "inhibition", "setting": "[2]", "value": "inactive"},
      {"measurement": "inhibition", "setting": "[3]", "value": "Active"},
      {"measurement": "inhibition", "setting": "[4]", "value": "Active"}
    ]}
  ]
}
